pKi: −log10 of the molar value. Where a name gives a salt, the structure may show the parent alone.
Target: T1, σ1-receptor (Cavia porcellus, UniProt Q60492)
T1 construct: Guinea pig brains were homogenized in 10 vols; (w/v) of Tris-HCl 50 mM 0.32 M sucrose; from tissue; host or cells: guinea pig brain membranes
Assay: σ1-receptor binding assay, [3H]-(+)-pentazocine, guinea pig brain membranes
Details: radioligand [3H]-(+)-pentazocine at 5.0 nM; guinea pig brain membrane; 150 min at 37° C.; nonspecific binding with 1 μM haloperidol
Procedure: Brain membrane preparation and binding assays for the σ1-receptor were performed as described (DeHaven-Hudkins, D. L., L. C. Fleissner, and F. Y. Ford-Rice, 1992, Characterization of the binding of [^3H](+)pentazocine to σ recognition sites in guinea pig brain, Eur. J. Pharmacol. 227, 371-378) with some modifications. Guinea pig brains were homogenized in 10 vols. (w/v) of Tris-HCl 50 mM 0.32 M sucrose, pH 7.4, with a Kinematica Polytron PT 3000 at 15000 r.p.m. for 30 s. The homogenate was centrifuged at 1000 g for 10 min at 4° C. and the supernatants collected and centrifuged again at 48000 g for 15 min at 4° C. The pellet was resuspended in 10 volumes of Tris-HCl buffer (50 mM, pH 7.4), incubated at 37° C. for 30 min, and centrifuged at 48000 g for 20 min at 4° C. Following this, the pellet was re-suspended in fresh Tris-HCl buffer (50 mM, pH 7.4) and stored on ice until use.
The radioligand used was [^3H]-(+)-pentazocine at 5.0 nM and the final volume was 200 μl. The incubation was initiated with the addition of 100 μl of membrane at a final tissue concentration of approximately 5 mg tissue net weight/mL and the incubation time was 150 m. at 37° C. After incubation, the membranes were collected onto pretreated glass fiber filterplate (MultiScreen-FC, Millipore), with polyethylenimine 0.1%. The filters were washed two times with 200 μl of washing buffer (50 mM Tris Cl, pH=7.4) and then 25 μl of Ecoscint H liquid scintillation cocktail were added. Microplates were allowed to set for several hours and then quantified by liquid scintillation spectrophotometry (1450 Microbeta, Wallac). Nonspecific binding was determined with 1 μM haloperidol.

T1 sequence (Q60492 whole entry): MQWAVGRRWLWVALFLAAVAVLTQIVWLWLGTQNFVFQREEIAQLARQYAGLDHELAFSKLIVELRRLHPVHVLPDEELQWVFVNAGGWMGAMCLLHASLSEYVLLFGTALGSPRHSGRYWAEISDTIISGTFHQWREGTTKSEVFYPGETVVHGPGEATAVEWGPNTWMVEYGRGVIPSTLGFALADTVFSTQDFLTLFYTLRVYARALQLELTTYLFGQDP

Structure (SMILES) | pKi
CC(C)N1CCN(CCOc2cc3n(n2)CCCC3)CC1 [Example 91, 2-(2-(4-isopropylpiperazin-1-yl)ethoxy)-4,5,6,7-tetrahydropyrazolo[1,5-a]pyridine maleate] | 6.71
CN(CCCCOc1cc2ccccn2n1)C1CCN(Cc2ccccc2)CC1 [Example 12, 1-benzyl-N-methyl-N-(4-(pyrazolo[1,5-a]pyridin-2-yloxy)butyl)piperidin-4-amine difumarate] | 7.71
c1ccn2nc(OCCCCN3CCCC3)cc2c1 [Example 20, 2-(4-(pyrrolidin-1-yl)butoxy)pyrazolo[1,5-a]pyridine oxalate] | 7.29
c1ccn2nc(OCCCCN3CCOCC3)cc2c1 [Example 17, 4-(4-(pyrazolo[1,5-a]pyridin-2-yloxy)butyl)morpholine oxalate] | 6.93
c1ccc2c(c1)COC21CCN(CCOc2cc3n(n2)CCCC3)CC1 [Example 74, 1′-(2-(4,5,6,7-tetrahydropyrazolo[1,5-a]pyridin-2-yloxy)ethyl)-3H-spiro[isobenzofuran-1,4′-piperidine]maleate] | 7.51
c1c(OCCCCN2CCCC2)nn2c1CCCC2 [Example 59, 2-(4-(pyrrolidin-1-yl)butoxy)-4,5,6,7-tetrahydropyrazolo[1,5-a]pyridine oxalate] | 6.78
c1ccc2c(c1)COC21CCN(CCCCOc2cc3ccccn3n2)CC1 [Example 27, 1′-(4-(pyrazolo[1,5-a]pyridin-2-yloxy)butyl)-3H-spiro[isobenzofuran-1,4′-piperidine] oxalate] | 8.04
CCCN(CCCCOc1cc2n(n1)CCCC2)CC1CC1 [Example 80, N-(cyclopropylmethyl)-N-propyl-4-(4,5,6,7-tetrahydropyrazolo[1,5-a]pyridin-2-yloxy)butan-1-amine maleate] | 7.60
c1c(OCCCCN2CCCOCC2)nn2c1CCCC2 [Example 89, 4-(4-(4,5,6,7-tetrahydropyrazolo[1,5-a]pyridin-2-yloxy)butyl)-1,4-oxazepane maleate] | 8.00
CN(CCOc1nn2c(c1I)CCCC2)Cc1ccccc1 [Example 107, N-benzyl-2-(3-iodo-4,5,6,7-tetrahydropyrazolo[1,5-a]pyridin-2-yloxy)-N-methylethanamine oxalate] | 8.53
CN(CCCCOc1cc2ccccn2n1)Cc1ccccc1 [Example 22, N-benzyl-N-methyl-4-(pyrazolo[1,5-a]pyridin-2-yloxy)butan-1-amine oxalate] | 8.44
c1ccc2c(c1)CCN(CCCCOc1cc3n(n1)CCCC3)C2 [Example 84, 2-(4-(4,5,6,7-tetrahydropyrazolo[1,5-a]pyridin-2-yloxy)butyl)-1,2,3,4-tetrahydroisoquinoline maleate] | 7.80
CN(CCOc1cc2ccccn2n1)CCc1ccccc1 [Example 40, N-methyl-N-phenethyl-2-(pyrazolo[1,5-a]pyridin-2-yloxy)ethanamine maleate] | 7.39
c1ccc(C2CCN(CCCCOc3cc4n(n3)CCCC4)CC2)cc1 [Example 63, 2-(4-(4-phenylpiperidin-1-yl)butoxy)-4,5,6,7-tetrahydropyrazolo[1,5-a]pyridine oxalate] | 8.04
CC(C)(C)C1CCN(CCCCOCc2cc3ccccn3n2)CC1 [Example 1, 2-((4-(4-tert-butylpiperidin-1-yl)butoxy)methyl)pyrazolo[1,5-a]pyridine maleate] | 7.79
c1c(OCCN2CCCCCC2)nn2c1CCCC2 [Example 53, 2-(2-(azepan-1-yl)ethoxy)-4,5,6,7-tetrahydropyrazolo[1,5-a]pyridine maleate] | 7.59
c1c(OCCCCN2CC[C@H]3CCCC[C@@H]3C2)nn2c1CCCC2 [Example 81, (4aR,8aS)-2-(4-(4,5,6,7-tetrahydropyrazolo[1,5-a]pyridin-2-yloxy)butyl)decahydroisoquinoline maleate] | 7.89
c1c(OCCCCNC2CCCCC2)nn2c1CCCC2 [Example 85, N-(4-(4,5,6,7-tetrahydropyrazolo[1,5-a]pyridin-2-yloxy)butyl)cyclohexanamine maleate] | 7.37
c1c(OCCCN2CCN(C3CCCCC3)CC2)nn2c1CCCC2 [Example 100, 2-(3-(4-cyclohexylpiperazin-1-yl)propoxy)-4,5,6,7-tetrahydropyrazolo[1,5-a]pyridine maleate] | 7.43
CN1CCN(CCCCOc2cc3n(n2)CCCC3)CC1 [Example 93, 2-(4-(4-methylpiperazin-1-yl)butoxy)-4,5,6,7-tetrahydropyrazolo[1,5-a]pyridine maleate] | 6.78

Structure (SMILES) | pKi
c1ccn2nc(OCCN3CCC4CCCCC4C3)cc2c1 (stereo not shown) [Example 42, 2-(2-(pyrazolo[1,5-a]pyridin-2-yloxy)ethyl)decahydroisoquinoline maleate] | 8.44
c1c(OCCCCNC23CC4CC(CC(C4)C2)C3)nn2c1CCCC2 [Example 83, N-adamantyl-4-(4,5,6,7-tetrahydropyrazolo[1,5-a]pyridin-2-yloxy)butan-1-amine maleate] | 7.46
CCCN(CCOc1cc2ccccn2n1)CC1CC1 [Example 43, N-(cyclopropylmethyl)-N-(2-(pyrazolo[1,5-a]pyridin-2-yloxy)ethyl)propan-1-amine maleate] | 7.55
c1ccn2nc(OCCCCN3CCN(C4CCCCC4)CC3)cc2c1 [Example 28, 2-(4-(4-cyclohexylpiperazin-1-yl)butoxy)pyrazolo[1,5-a]pyridine] | 7.70
CN(CCOc1cc2n(n1)CCCC2)Cc1ccccc1 [Example 64, N-benzyl-N-methyl-2-(4,5,6,7-tetrahydropyrazolo[1,5-a]pyridin-2-yloxy)ethanamine oxalate] | 7.81
CCCN(CCCCOCc1cc2ccccn2n1)CC1CC1 [Example 3, N-(cyclopropylmethyl)-N-propyl-4-(pyrazolo[1,5-a]pyridin-2-ylmethylpyrazolo[1,5-a]pyridin-2-ylmethoxy)butan-1-amine maleate] | 7.05
c1c(OCCCCN2CCCCC2)nn2c1CCCC2 [Example 60, 2-(4-(piperidin-1-yl)butoxy)-4,5,6,7-tetrahydropyrazolo[1,5-a]pyridine oxalate] | 7.39
c1c(OCCCCN2CCCCCC2)nn2c1CCCC2 [Example 78, 2-(4-(azepan-1-yl)butoxy)-4,5,6,7-tetrahydropyrazolo[1,5-a]pyridine maleate] | 7.58
c1ccn2nc(OCCCCN3CCN(C4CCCCC4)CC3)cc2c1 [Example 29, 2-(4-(4-cyclohexylpiperazin-1-yl)butoxy)pyrazolo[1,5-a]pyridine dimaleate] | 7.95
CCCN(CCCCOc1cc2ccccn2n1)CC1CC1 [Example 35, N-(cyclopropylmethyl)-N-propyl-4-(pyrazolo[1,5-a]pyridin-2-yloxy)butan-1-amine maleate] | 7.97
c1ccn2nc(COCCCCNC34CC5CC(CC(C5)C3)C4)cc2c1 [Example 5, N-adamantyl-4-(pyrazolo[1,5-a]pyridin-2-ylmethylpyrazolo[1,5-a]pyridin-2-ylmethoxy)butan-1-amine maleate] | 7.37
c1c(OCCCCN2CCOCC2)nn2c1CCCC2 [Example 56, 4-(4-(4,5,6,7-tetrahydropyrazolo[1,5-a]pyridin-2-yloxy)butyl)morpholine oxalate] | 6.74
CC(C)(C)C1CCN(CCCCOc2nn3c(c2Cl)CCCC3)CC1 [Example 105, 2-(4-(4-tert-butylpiperidin-1-yl)butoxy)-3-chloro-4,5,6,7-tetrahydropyrazolo[1,5-a]pyridine maleate] | 7.88
CCCN(CCOc1cc2n(n1)CCCC2)CC1CC1 [Example 90, N-(cyclopropylmethyl)-N-(2-(4,5,6,7-tetrahydropyrazolo[1,5-a]pyridin-2-yloxy)ethyl)propan-1-amine maleate] | 7.55
CC(C)(C)C1CCN(CCOc2cc3ccccn3n2)CC1 [Example 39, 2-(2-(4-tert-butylpiperidin-1-yl)ethoxy)pyrazolo[1,5-a]pyridine maleate] | 8.20
c1ccn2nc(OCCCCN3CCC4CCCCC4C3)cc2c1 (stereo not shown) [Example 34, 2-(4-(pyrazolo[1,5-a]pyridin-2-yloxy)butyl)decahydroisoquinoline fumarate] | 8.24
c1ccn2nc(COCCCCN3CCN(C4CCCCC4)CC3)cc2c1 [Example 10, 2-((4-(4-cyclohexylpiperazin-1-yl)butoxy)methyl)pyrazolo[1,5-a]pyridine maleate] | 7.12
CCN1CCN(CCCCOc2cc3n(n2)CCCC3)CC1 [Example 98, 2-(4-(4-ethylpiperazin-1-yl)butoxy)-4,5,6,7-tetrahydropyrazolo[1,5-a]pyridine maleate] | 6.86
CN(CCCCOc1cc2ccccn2n1)CCc1ccccc1 [Example 31, N-methyl-N-phenethyl-4-(pyrazolo[1,5-a]pyridin-2-yloxy)butan-1-amine hydrochloride] | 7.68
c1ccc2c(c1)CCN(CCCCOCc1cc3ccccn3n1)C2 [Example 4, maleate] | 7.32

— patent publication US9487513B2, “Substituted pyrazolo[1,5-A]pyridines, their preparation and use as medicaments” (LABORATORIOS DEL DR. ESTEVE S.A., priority 2012, dated 2016)
